Converted amounts (≈) assume the structure as drawn. Blank lines part the entries; values can stand above or below the compound they belong to.
Tests used:
[1] = tested on: Human Colon Carcinoma SW620; assay: In Vivo Inhibition of the Growth of Human Colon Carcinoma SW620 in mice; settings: for S/T = No. Survivors/No. Treated on Day +21 post tumor staging / %T/C Day 7 / %T/C Day 14 / Relative Tumor Growth Day 14 / %T/C Day 21 / Relative Tumor Growth Day 21 / Relative Tumor Growth Day 7: days 1 through 20; for tumor growth was inhibited by: 30 mg/kg i.p. during days 1-20
Method: A unit of 7 X 10^6 cells were injected SC into mice. […] Control animals received vehicle only. Tumor mass was determined every 7 days [(length X width^2)/2] for 28 days post staging.

A2780 = assay: Inhibition of Cancer Cell Growth as Measured by Cell Number (Sulforhodamine B); format: cell-based; settings: Homo sapiens, 48 hours exposure
Method: (§1) Human tumor cell lines were plated in 96-well plates (250 µl/well, 1-6 x 10^4 cells/ml) in RPMI 1640 medium, containing 5% FBS (Fetal Bovine Serum). […] After 48 hours exposure to test compounds, cells were fixed with trichloroacetic acid, and stained with Sulforhodamine B. After washing with trichloroacetic acid, bound dye was solubilized in 10 mM Tris base and optical density was determined using plate reader. Under conditions of the assay the optical density is proportional to the number of cells in the well. […] The test procedure is described in details by Philip Skehan et. al, J.Natl. Canc. Inst., 82, 1107-1112 (1990). […] Information about some of the cell lines used in these test procedures is available from the American Type Tissue Collection: Cell Lines and Hybridomas, 1994 Reference Guide, 8th Edition.

DDP = assay: as above; format: cell-based; settings: Homo sapiens; 48 hours exposure
Method: as §1

[2] = biological target: T1, Kinase insert Domain containing Receptor (KDR: the catalytic domain of the VEGF receptor) (Homo sapiens, UniProt P35968); assay: Inhibition of Kinase insert Domain containing Receptor (KDR), radioactive phosphorylation of Glu:Tyr copolymer; format: biochemical; settings: IC50, substrate phosphorylation
T1 construct: KDR: the catalytic domain of the VEGF receptor
T1 sequence (P35968 834-1162 limits assumed): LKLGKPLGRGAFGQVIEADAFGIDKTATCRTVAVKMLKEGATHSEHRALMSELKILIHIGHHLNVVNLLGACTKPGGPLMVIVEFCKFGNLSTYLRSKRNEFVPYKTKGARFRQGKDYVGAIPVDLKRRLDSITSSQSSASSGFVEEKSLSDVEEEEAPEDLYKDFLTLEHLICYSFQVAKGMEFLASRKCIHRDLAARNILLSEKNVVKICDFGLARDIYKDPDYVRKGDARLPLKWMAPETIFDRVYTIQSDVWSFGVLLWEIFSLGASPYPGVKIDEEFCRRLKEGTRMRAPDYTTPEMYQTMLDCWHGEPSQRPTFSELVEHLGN
Summary of the method: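 Radiometric read-out: acid-precipitable 32P/33P from labelled ATP on an E:Y 4:1 copolymer, ATP added to start. KDR catalytic domain was incubated with compound, Mg++ and vanadate phosphatase blocker, buffered at pH 7.2; compounds may have several replicate entries.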

SW620 = assay: Inhibition of Cancer Cell Growth as Measured by Cell Number (Sulforhodamine B); format: cell-based, Human; settings: Homo sapiens, SW-620, 48 h, 48 hours exposure
Method: as §1

A431 = assay: as above; format: cell-based, Human; settings: Homo sapiens, A-431, 48 h, 48 hours exposure
Method: as §1

MDA-MB-435 = assay: as above; format: cell-based, Human; settings: Homo sapiens, MDA-MB-435, 48 h, 48 hours exposure
Method: as §1

SK-BR3 = assay: as above; format: cell-based, Human; settings: Homo sapiens, SK-BR-3, 48 h, 48 hours exposure
Method: as §1

[3] = biological target: Recombinant human MEK 1 (MAPKK) / recombinant human ERK2 (MAPK) (Mek-Erk) (Homo sapiens, UniProt P28482+Q02750); assay: Mitogen Activated Protein Kinase (MAPK) assay, two component coupled Mek-Erk test; format: biochemical; settings: read-out: Mek-Erk
Recombinant human MEK 1 (MAPKK) / recombinant human ERK2 (MAPK) (Mek-Erk), sequence (P28482 2-360): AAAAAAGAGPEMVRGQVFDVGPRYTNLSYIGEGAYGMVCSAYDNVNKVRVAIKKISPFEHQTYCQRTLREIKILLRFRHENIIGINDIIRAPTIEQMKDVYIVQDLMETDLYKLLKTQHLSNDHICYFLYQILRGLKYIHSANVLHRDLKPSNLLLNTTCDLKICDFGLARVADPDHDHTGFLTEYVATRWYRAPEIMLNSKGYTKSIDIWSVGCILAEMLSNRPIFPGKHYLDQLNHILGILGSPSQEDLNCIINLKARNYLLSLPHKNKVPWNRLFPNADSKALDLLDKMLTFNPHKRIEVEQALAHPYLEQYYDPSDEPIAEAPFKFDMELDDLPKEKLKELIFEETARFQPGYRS
Recombinant human MEK 1 (MAPKK) / recombinant human ERK2 (MAPK) (Mek-Erk), sequence (Q02750 whole entry): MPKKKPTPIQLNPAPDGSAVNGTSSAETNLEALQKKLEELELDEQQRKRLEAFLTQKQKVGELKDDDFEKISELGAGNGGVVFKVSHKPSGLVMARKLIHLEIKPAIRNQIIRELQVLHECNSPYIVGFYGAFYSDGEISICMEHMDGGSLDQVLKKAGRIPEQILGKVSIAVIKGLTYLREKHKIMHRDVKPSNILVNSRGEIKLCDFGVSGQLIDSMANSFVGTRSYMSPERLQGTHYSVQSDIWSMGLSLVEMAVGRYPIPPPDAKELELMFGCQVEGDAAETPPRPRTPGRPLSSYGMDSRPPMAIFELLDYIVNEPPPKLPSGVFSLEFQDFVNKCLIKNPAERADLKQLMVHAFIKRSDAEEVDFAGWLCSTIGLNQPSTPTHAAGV

[4] = biological target: Epithelial Cell Kinase (ECK) (Homo sapiens, UniProt P29317); assay: Inhibition of Epithelial Cell Kinase (ECK), immobilized biotinylated peptide, HRP anti-phosphotyrosine readout; format: biochemical; settings: IC50, substrate phosphorylation
Epithelial Cell Kinase (ECK), sequence (P29317 24-976, species assumed): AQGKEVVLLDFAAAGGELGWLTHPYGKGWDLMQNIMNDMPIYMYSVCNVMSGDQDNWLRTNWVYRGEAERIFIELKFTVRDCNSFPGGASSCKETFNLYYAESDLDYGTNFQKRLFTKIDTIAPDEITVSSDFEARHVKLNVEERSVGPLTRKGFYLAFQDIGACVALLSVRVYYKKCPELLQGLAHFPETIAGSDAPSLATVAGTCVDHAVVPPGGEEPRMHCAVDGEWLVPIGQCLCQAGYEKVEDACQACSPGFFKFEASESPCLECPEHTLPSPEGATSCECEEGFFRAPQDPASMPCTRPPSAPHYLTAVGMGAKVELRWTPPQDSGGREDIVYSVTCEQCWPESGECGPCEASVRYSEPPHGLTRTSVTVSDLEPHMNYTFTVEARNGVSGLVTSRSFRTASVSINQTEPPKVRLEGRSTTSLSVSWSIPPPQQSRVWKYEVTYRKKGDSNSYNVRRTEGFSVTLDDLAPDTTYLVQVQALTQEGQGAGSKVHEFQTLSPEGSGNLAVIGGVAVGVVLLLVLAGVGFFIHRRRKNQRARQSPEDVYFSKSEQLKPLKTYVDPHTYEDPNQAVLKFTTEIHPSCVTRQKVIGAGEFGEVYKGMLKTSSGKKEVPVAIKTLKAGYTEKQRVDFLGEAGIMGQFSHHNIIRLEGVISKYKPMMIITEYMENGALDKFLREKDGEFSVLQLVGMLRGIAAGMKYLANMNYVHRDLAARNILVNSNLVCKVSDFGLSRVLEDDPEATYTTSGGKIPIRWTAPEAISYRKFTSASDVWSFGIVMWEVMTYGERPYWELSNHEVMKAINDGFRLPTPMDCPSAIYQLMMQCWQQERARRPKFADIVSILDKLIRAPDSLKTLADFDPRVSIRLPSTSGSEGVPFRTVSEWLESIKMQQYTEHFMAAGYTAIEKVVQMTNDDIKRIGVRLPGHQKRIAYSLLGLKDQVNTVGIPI
Summary of the method: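 Biotinylated peptide substrate immobilized on neutravidin plates, reacted with ECK, test drug, Mg++ and sodium vanadate at pH 7.2; ATP added to start phosphorylation. After washing, phosphopeptide detected with HRP-conjugated anti-phosphotyrosine antibody, HRP activity reflecting substrate phosphorylation. Repeat entries are separate tests of the same compound.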

[5] = biological target: T2, epidermal growth factor receptor kinase (EGF-R Kinase, recombinant enzyme; His-tagged cytoplasmic domain of EGFR) (Homo sapiens, UniProt P00533); assay: Inhibition of Epidermal Growth Factor Receptor Kinase (EGF-R) using recombinant enzyme, RR-SRC peptide phosphorylation, 33P-ATP; format: biochemical
T2 construct: EGFR cDNA encoding amino acids 645 - 1186 preceded by Met-Ala-(His)6; Met-Ala-(His)6 (N); made in house; host or cells: Sf9 insect cells, recombinant baculovirus vHcEGFR52
T2 sequence (P00533 669-1210): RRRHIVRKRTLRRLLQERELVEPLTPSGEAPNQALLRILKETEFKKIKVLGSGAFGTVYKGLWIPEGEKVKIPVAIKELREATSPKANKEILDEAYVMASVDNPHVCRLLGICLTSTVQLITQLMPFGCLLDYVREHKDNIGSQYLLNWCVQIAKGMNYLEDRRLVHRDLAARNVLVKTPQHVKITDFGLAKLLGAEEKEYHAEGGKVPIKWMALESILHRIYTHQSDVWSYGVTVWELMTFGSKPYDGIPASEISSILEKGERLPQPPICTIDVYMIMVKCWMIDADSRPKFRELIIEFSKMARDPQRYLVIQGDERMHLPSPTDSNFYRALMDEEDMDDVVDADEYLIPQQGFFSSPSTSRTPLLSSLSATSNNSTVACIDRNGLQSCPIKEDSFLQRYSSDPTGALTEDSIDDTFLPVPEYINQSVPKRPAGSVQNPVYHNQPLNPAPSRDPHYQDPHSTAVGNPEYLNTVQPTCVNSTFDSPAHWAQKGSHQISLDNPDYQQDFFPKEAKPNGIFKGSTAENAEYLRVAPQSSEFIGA
Summary of the method: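 His-tagged EGFR cytoplasmic domain (aa 645–1186, baculovirus/Sf9) preincubated with compound 10 min on ice, then RR-SRC peptide (80 µM final) and γ-33P-ATP added. Reaction run 90 min at room temperature; peptide-bound 33P counted on P81 filters, background-corrected. IC50 from dose-response of ≥3 concentrations.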

3T3 = assay: Inhibition of Cancer Cell Growth as Measured by Cell Number (Sulforhodamine B); format: cell-based; settings: Mus musculus, NIH3T3; 48 hours exposure
Method: as §1

3T3/c-erbb2 = assay: as above; format: cell-based; settings: 48 hours exposure
Method: as §1

IC50 [3]: 3.5 µM | IC50 (A2780): 0.27 µg/mL (≈ 0.65 µM) | IC50 (DDP): 0.249 µg/mL (≈ 0.599 µM) | IC50 [4]: > 48.2 µM | IC50 [2]: > 72.3 µM | IC50 (SW620): 0.325 µg/mL (≈ 0.782 µM) | IC50 (A431): 0.369 µg/mL (≈ 0.888 µM) | IC50 (MDA-MB-435): 0.067 µg/mL (≈ 0.161 µM) | IC50 (SK-BR3): 0.429 µg/mL (≈ 1.03 µM)
Structure (SMILES): CCOc1cc2ncc(C#N)c(Nc3ccc4c(C)cc(=O)oc4c3)c2cc1OCC [Example 100, 6,7-Diethoxy-4-(4-methyl-2-oxo-2H-chromen-7-ylamino)-quinoline-3-carbonitrile]

IC50 (A2780): 2.39 µg/mL (≈ 6.39 µM) | IC50 (DDP): 2.69 µg/mL (≈ 7.18 µM) | IC50 [4]: > 53.4 µM | IC50 (SW620): 2.64 µg/mL (≈ 7.04 µM) | IC50 (A431): 1.61 µg/mL (≈ 4.3 µM) | IC50 (MDA-MB-435): 0.309 µg/mL (≈ 0.825 µM) | IC50 (SK-BR3): 0.767 µg/mL (≈ 2.05 µM)
Structure (SMILES): CCOc1cc2ncc(C#N)c(Nc3ccc4[nH]nnc4c3)c2cc1OCC [Example 103, 4-(1H-Benzotriazol-5-ylamino)-6,7-diethoxy-quinoline-3-carbonitrile]

IC50 [3]: 35 µM | IC50 (A2780): 0.044 µg/mL (≈ 0.109 µM) | IC50 (DDP): 0.107 µg/mL (≈ 0.266 µM) | IC50 [4]: > 49.7 µM | IC50 [2]: > 74.6 µM | IC50 (SW620): 0.207 µg/mL (≈ 0.514 µM) | IC50 (A431): 0.049 µg/mL (≈ 0.122 µM) | IC50 (MDA-MB-435): 0.021 µg/mL (≈ 0.0522 µM) | IC50 (SK-BR3): 0.034 µg/mL (≈ 0.0845 µM)
Structure (SMILES): CCOc1cc2ncc(C#N)c(Nc3ccc4c(c3)C(=O)NC4=O)c2cc1OCC [Example 104, 4-(1,3-Dioxo-2,3-dihydro-1H-isoindol-5-ylamino)-6,7-diethoxy-quinoline-3-carbonitrile]

Second part, the compound before the results:

Structure (SMILES): CCOc1cc2ncc(C#N)c(Nc3ccc4cn[nH]c4c3)c2cc1OCC [Example 99, 6,7-Diethoxy-4-(1H-indazol-6-ylamino)-quinoline-3-carbonitrile]
S/T = No. Survivors/No. Treated on Day +21 post tumor staging ([1]; 3 mg/kg/dose IP): 5/5 | %T/C Day 7 ([1]; 3 mg/kg/dose IP): 93% | %T/C Day 14 ([1]; 3 mg/kg/dose IP): 108% | Relative Tumor Growth Day 14 ([1]; 3 mg/kg/dose IP): 12.53 | %T/C Day 21 ([1]; 3 mg/kg/dose IP): 147% | Relative Tumor Growth Day 21 ([1]; 3 mg/kg/dose IP): 16.47 | S/T = No. Survivors/No. Treated on Day +21 post tumor staging ([1]; 10 mg/kg/dose IP): 5/5 | %T/C Day 7 ([1]; 10 mg/kg/dose IP): 90% | Relative Tumor Growth Day 7 ([1]; 10 mg/kg/dose IP): 3.69 | %T/C Day 14 ([1]; 10 mg/kg/dose IP): 68% | Relative Tumor Growth Day 14 ([1]; 10 mg/kg/dose IP): 7.88 | %T/C Day 21 ([1]; 10 mg/kg/dose IP): 87% | Relative Tumor Growth Day 21 ([1]; 10 mg/kg/dose IP): 9.75 | tumor growth was inhibited by ([1]; day 7): 56% | tumor growth was inhibited by ([1]; day 14): 67% | tumor growth was inhibited by ([1]; day 21): 60% | S/T = No. Survivors/No. Treated on Day +21 post tumor staging ([1]; 30 mg/kg/dose IP): 4/5 | %T/C Day 7 ([1]; 30 mg/kg/dose IP): 44% | Relative Tumor Growth Day 7 ([1]; 30 mg/kg/dose IP): 1.81 | %T/C Day 14 ([1]; 30 mg/kg/dose IP): 33% | Relative Tumor Growth Day 14 ([1]; 30 mg/kg/dose IP): 3.85 | %T/C Day 21 ([1]; 30 mg/kg/dose IP): 40% | Relative Tumor Growth Day 21 ([1]; 30 mg/kg/dose IP): 4.44 | IC50 (A2780): 0.032 µg/mL (≈ 0.0857 µM) | IC50 (DDP): 0.036 µg/mL (≈ 0.0964 µM) | IC50 [2]: 21.4 µM | IC50 (SW620): 0.033 µg/mL (≈ 0.0884 µM) | IC50 (A431): 0.025 µg/mL (≈ 0.0669 µM) | IC50 (MDA-MB-435): 0.02 µg/mL (≈ 0.0536 µM) | IC50 (SK-BR3): 0.016 µg/mL (≈ 0.0428 µM)

Structure (SMILES): CCOc1cc2ncc(C#N)c(Nc3ccc4cc[nH]c4c3)c2cc1OCC [Example 101, 6,7-Diethoxy-4-(1H-indol-6-ylamino)-quinoline-3-carbonitrile]
inhibition at 0.5 µM ([5]; read-out: %Inh @ 0.5 µM): 27% | IC50 ([5]; recombinant enzyme, 90 min at room temperature): > 1 µM | IC50 (A2780): 0.231 µg/mL (≈ 0.62 µM) | IC50 (3T3): 1.53 µg/mL (≈ 4.11 µM) | IC50 (3T3/c-erbb2): 0.933 µg/mL (≈ 2.51 µM) | IC50 (DDP): 0.313 µg/mL (≈ 0.84 µM) | IC50 [4]: > 53.7 µM | IC50 [2]: 5.37 µM | IC50 (SW620): 0.326 µg/mL (≈ 0.875 µM) | IC50 (A431): 0.216 µg/mL (≈ 0.58 µM)

Structure (SMILES): COc1cc2ncc(C#N)c(Nc3ccc4cn[nH]c4c3)c2cc1OC [Example 102, 6,7-Dimethoxy-4-(1H-indazol-6-ylamino)-quinoline-3-carbonitrile]
IC50 (A2780): 1.49 µg/mL (≈ 4.32 µM) | IC50 (DDP): 3.05 µg/mL (≈ 8.84 µM) | IC50 [4]: > 56.4 µM | IC50 [2]: 14.1 µM | IC50 (SW620): 2.18 µg/mL (≈ 6.31 µM) | IC50 (A431): 1.31 µg/mL (≈ 3.79 µM) | IC50 (MDA-MB-435): 0.49 µg/mL (≈ 1.42 µM) | IC50 (SK-BR3): 0.78 µg/mL (≈ 2.26 µM)

— patent EP1117659B1, “SUBSTITUTED 3-CYANOQUINOLINES AS PROTEIN TYROSINE KINASES INHIBITORS” (Wyeth Holdings Corporation, priority 1998, dated 2000)
